Here are results for seven compounds from ChEMBL document CHEMBL1240436, “Synthesis and biological evaluation of novel 2,4'-bis substituted diphenylamines as anticancer agents and potential epidermal growth factor receptor tyrosine kinase inhibitors” (Eur J Med Chem, 2010).

Molecules are shown by their SMILES.

Broadly, the IC50 is the point on the concentration scale where inhibition reaches its midpoint. Low readings indicate inhibition by little substance, high ones a need for much substance.

The subject of the experiment is MCF7. As to the kind of experiment: Cytotoxicity against human MCF7 cells after 48 hrs by SRB assay. Format: functional, cell-based.

`COc1ccc(/C=N/NC(=O)c2ccc(Nc3ccccc3C(=O)N/N=C/c3ccc(OC)c(OC)c3)cc2)cc1OC`: the IC50 came to 810 nM.
With `Sc1nnc(-c2ccc(Nc3ccccc3-c3nnc(S)o3)cc2)o1` the figure was 2000 nM; with `c1ccc(CSc2nnc(-c3ccc(Nc4ccccc4-c4nnc(SCc5ccccc5)o4)cc3)o2)cc1`, 730 nM; with `C=CCSc1nnc(-c2ccc(Nc3ccccc3-c3nnc(SCC=C)o3)cc2)o1`, 1050 nM.
Consider `CN(C)c1ccc(/C=N/NC(=O)c2ccc(Nc3ccccc3C(=O)N/N=C/c3ccc(N(C)C)cc3)cc2)cc1`, for which the midpoint of inhibition, the IC50, lay at 1230 nM.
`CCNc1nnc(-c2ccc(Nc3ccccc3-c3nnc(NCC)s3)cc2)s1` displayed a half-maximal inhibitory concentration (IC50) of 940 nM.
With `CCn1c(S)nnc1-c1ccc(Nc2ccccc2-c2nnc(S)n2CC)cc1` the figure was 2380 nM.
